Experiment [1] deals with CWR22R. Put plainly: Cytotoxicity against human 22Rv1 cells assessed as reduction in cell viability incubated for 24 hrs by MTT assay. Conditions: 22Rv1, 24 h.
The target in experiment [2] is T1, Heat shock protein 75 kDa, mitochondrial (Homo sapiens, UniProt Q12931).
T1 sequence (Q12931 whole entry): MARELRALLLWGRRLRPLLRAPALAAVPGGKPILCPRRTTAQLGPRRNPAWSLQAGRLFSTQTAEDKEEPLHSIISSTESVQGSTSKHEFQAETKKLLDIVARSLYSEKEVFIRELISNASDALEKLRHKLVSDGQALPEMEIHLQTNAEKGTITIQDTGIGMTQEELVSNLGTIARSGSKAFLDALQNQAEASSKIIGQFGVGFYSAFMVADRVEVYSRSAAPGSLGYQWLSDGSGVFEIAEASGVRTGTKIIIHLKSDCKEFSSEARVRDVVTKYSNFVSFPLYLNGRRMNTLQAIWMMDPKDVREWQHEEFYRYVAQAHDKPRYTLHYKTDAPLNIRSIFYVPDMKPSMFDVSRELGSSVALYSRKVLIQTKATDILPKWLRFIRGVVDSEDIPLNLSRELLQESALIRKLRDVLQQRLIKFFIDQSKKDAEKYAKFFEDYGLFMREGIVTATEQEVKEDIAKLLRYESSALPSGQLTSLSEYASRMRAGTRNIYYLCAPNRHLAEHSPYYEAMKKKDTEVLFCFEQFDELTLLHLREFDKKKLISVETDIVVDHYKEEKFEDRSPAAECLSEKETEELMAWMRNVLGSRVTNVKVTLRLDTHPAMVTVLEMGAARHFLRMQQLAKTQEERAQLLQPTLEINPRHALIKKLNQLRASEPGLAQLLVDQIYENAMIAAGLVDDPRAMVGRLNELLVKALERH

The subject of experiment [3] is HeLa. The experiment is described as follows: Cytotoxicity against human HeLa cells assessed as reduction in cell viability incubated for 24 hrs by MTT assay.
Experiment [4] has as its target Heat shock protein 75 kDa, mitochondrial (Homo sapiens, UniProt Q12931, F353A/F531A).
Experiment [5] addresses T1, Heat shock protein 75 kDa, mitochondrial. Put plainly: Binding affinity to TRAP1 (unknown origin) assessed as dissociation constant incubated for 15 mins by MST analysis.
Experiment [6] has the same target. This is another data set of the same source.
Description: Binding affinity to N-terminal 6Hits-tagged/TEV-fused human wildtype TRAP1 extracted from Escherichia coli BL21 (DE3) cells assessed as dissociation constant incubated for 2 hrs by fluorescence polarization assay
For experiment [7] the target is unchanged. Put plainly: Binding affinity to TRAP1 (unknown origin) assessed as dissociation constant by MST analysis.

Molecules are shown by their SMILES.

Chain of Heat shock protein 75 kDa, mitochondrial (Homo sapiens, UniProt Q12931, F353A/F531A) (Q12931 60-704 F353A/F531A limits assumed): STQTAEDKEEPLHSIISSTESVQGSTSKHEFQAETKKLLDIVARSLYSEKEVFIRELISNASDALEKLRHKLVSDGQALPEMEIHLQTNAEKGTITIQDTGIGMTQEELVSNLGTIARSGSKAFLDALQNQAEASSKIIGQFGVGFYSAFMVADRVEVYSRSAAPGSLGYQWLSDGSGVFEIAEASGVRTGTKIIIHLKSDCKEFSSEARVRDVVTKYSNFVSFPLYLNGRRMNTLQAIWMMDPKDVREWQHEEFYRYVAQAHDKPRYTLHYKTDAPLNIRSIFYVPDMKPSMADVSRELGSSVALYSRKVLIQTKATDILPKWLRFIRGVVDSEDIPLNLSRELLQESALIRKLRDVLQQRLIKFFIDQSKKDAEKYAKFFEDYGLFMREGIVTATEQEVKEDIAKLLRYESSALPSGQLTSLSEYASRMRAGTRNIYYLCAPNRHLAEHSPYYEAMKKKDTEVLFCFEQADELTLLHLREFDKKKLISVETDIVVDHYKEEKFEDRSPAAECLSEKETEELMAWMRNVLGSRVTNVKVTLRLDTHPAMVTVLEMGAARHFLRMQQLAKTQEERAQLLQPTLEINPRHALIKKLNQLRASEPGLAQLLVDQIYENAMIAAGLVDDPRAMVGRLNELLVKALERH

As for `Cc1c(C)c2c(c(C)c1O)CCC(C)(CCCCCCCCCC[P+](c1ccccc1)(c1ccccc1)c1ccccc1)O2` (stereo not given), the half-maximal inhibitory concentration (IC50) was determined as 0.183 µM in experiment [1], 8.42 µM in experiment [2] and 1.45 µM in experiment [3].

For `c1ccc([P+](Cc2c3ccccc3c(C[P+](c3ccccc3)(c3ccccc3)c3ccccc3)c3ccccc23)(c2ccccc2)c2ccccc2)cc1`, the IC50 in experiment [1] is more than 20 µM; in experiment [2], 9.96 µM; in experiment [3], more than 20 µM.

As for `COc1c(C)c(CCCCCCCCCC[P+](c2ccccc2)(c2ccccc2)c2ccccc2)c(OC)c(OC)c1OC`, the half-maximal inhibitory concentration (IC50) came out at 0.385 µM in experiment [1], 3.77 µM in experiment [2] and 1.65 µM in experiment [3].

Turning to `CN(CCCCCCCC[P+](c1ccccc1)(c1ccccc1)c1ccccc1)C(=O)c1ccccc1C1=c2cc3c4c(c2Oc2c1cc1c5c2CCCN5CCC1)CCC[N+]=4CCC3`, the results for the Kd in experiment [4], in experiment [5] and in experiment [6] were 5.21 µM, 0.37 µM and 0.27 µM, respectively.

Consider `COC1=C(OC)C(=O)C(CCCCCCCCCC[P+](c2ccccc2)(c2ccccc2)c2ccccc2)=C(C)C1=O` [MITOQUINONE CATION], for which the half-maximal inhibitory concentration (IC50) worked out at 0.597 µM in experiment [1], 5.2 µM in experiment [2] and 4.3 µM in experiment [3]. In addition, the equilibrium dissociation constant (Kd) in experiment [7] turned out to be 6.6 µM.

`CC1(C)CC(C(=O)OCCCCCCCCCC[P+](c2ccccc2)(c2ccccc2)c2ccccc2)C(C)(C)N1O` (stereo not given): the IC50 came out at 0.601 µM in experiment [1], 4.75 µM in experiment [2] and 5.15 µM in experiment [3].

Turning to `O=C(c1ccccc1)C(O)(CCC[P+](c1ccccc1)(c1ccccc1)c1ccccc1)c1ccccc1` (stereo not given), the figures for the 50% inhibitory concentration (IC50) in experiment [1], in experiment [2] and in experiment [3] were 3.49 µM, more than 20 µM and 17.6 µM, respectively.

With `Cc1c(C)c2c(c(C)c1O)CCC(C)(CC[P+](c1ccccc1)(c1ccccc1)c1ccccc1)O2` (stereo not given), the IC50 in experiment [1] was 17.4 µM; in experiment [2], more than 20 µM; in experiment [3], more than 20 µM.

Turning to `CC1(C)CC(C(=O)OCC[P+](c2ccccc2)(c2ccccc2)c2ccccc2)C(C)(C)N1O` (stereo not given), the IC50 in experiment [1], in experiment [2] and in experiment [3] was more than 20 µM in each case.

In the case of `O=C(C/C(=C/c1ccccc1)C[P+](c1ccccc1)(c1ccccc1)c1ccccc1)C/C(=C\c1ccccc1)C[P+](c1ccccc1)(c1ccccc1)c1ccccc1`, the 50% inhibitory concentration (IC50) is 17.4 µM in experiment [1], more than 20 µM in experiment [2] and more than 20 µM in experiment [3].

For the compound `O=C(CCCCCCCCCC[P+](c1ccccc1)(c1ccccc1)c1ccccc1)Nc1nccs1`, the 50% inhibitory concentration (IC50) came out at 2.25 µM in experiment [1], 14.1 µM in experiment [2] and 6.38 µM in experiment [3].

Regarding `COc1cc(COC(=O)CCCCC[P+](c2ccccc2)(c2ccccc2)c2ccccc2)c(OC)c2c1OCO2`, the values for the concentration for half-maximal inhibition (IC50) in experiment [1], in experiment [2] and in experiment [3] were 18.3 µM, more than 20 µM and more than 20 µM, respectively.

In the case of `CN(CCCCCC[P+](c1ccccc1)(c1ccccc1)c1ccccc1)C(=O)c1ccccc1C1=c2cc3c4c(c2Oc2c1cc1c5c2CCCN5CCC1)CCC[N+]=4CCC3`, in experiment [6], the affinity, expressed as Kd, was 1.52 µM.

As to `O=C(CCCCCCCCC[P+](c1ccccc1)(c1ccccc1)c1ccccc1)Oc1ccc(-c2cc(=S)ss2)cc1`, the half-maximal inhibitory concentration (IC50) is more than 20 µM in experiment [1], 8.94 µM in experiment [2] and more than 20 µM in experiment [3].

For the compound `COC1=C(OC)C(=O)C(C[P+](c2ccccc2)(c2ccccc2)c2ccccc2)=C(C)C1=O`, the figures for the IC50 in experiment [1], in experiment [2] and in experiment [3] were 16.3 µM, more than 20 µM and more than 20 µM, respectively.

For `COc1cc(C)c(CCCCCCCCCC[P+](c2ccccc2)(c2ccccc2)c2ccccc2)cc1OC`, the half-maximal inhibitory concentration (IC50) came to 0.502 µM in experiment [1], 3.8 µM in experiment [2] and 3.21 µM in experiment [3].

In turn, `CCN(CC)c1ccc2c(-c3ccccc3C(=O)N(C)CCCCCC[P+](c3ccccc3)(c3ccccc3)c3ccccc3)c3ccc(=[N+](CC)CC)cc-3oc2c1` yielded a Kd in experiment [6] of 0.81 µM.

As for `COc1c(Br)c(C)c(CCCCCCCCCC[P+](c2ccccc2)(c2ccccc2)c2ccccc2)c(OC)c1OC`, the IC50 in experiment [1] came to 0.37 µM; in experiment [2] it was 4.07 µM; in experiment [3], 1.61 µM.

On to `CC(C)(C)[Si](C)(C)O[C@H]1CC[C@]2(C)[C@H]1[C@H]2CCC[P+](c1ccccc1)(c1ccccc1)c1ccccc1`, for which the half-maximal inhibitory concentration (IC50) was 0.86 µM in experiment [1], 8.05 µM in experiment [2] and 1.67 µM in experiment [3].

`CCN(CC)c1ccc2c(-c3ccccc3C(=O)N(C)CCCCCCCC[P+](c3ccccc3)(c3ccccc3)c3ccccc3)c3ccc(=[N+](CC)CC)cc-3oc2c1` came in with a dissociation constant (Kd) in experiment [6] of 2.19 µM.

As to `CN(C)CCOc1ccc(/C(=C(/CCCCCCCCCC[P+](c2ccccc2)(c2ccccc2)c2ccccc2)c2ccccc2)c2ccccc2)cc1`, the IC50 was 0.62 µM in experiment [1], 2.53 µM in experiment [2] and 0.94 µM in experiment [3]. The values for the Kd in experiment [4] and in experiment [5] were 28 µM and 4.41 µM, respectively.
